# According to patent publication US20240390340A1 (INCYTE CORPORATION, priority 2023, published 2024):
# pIC50: −log10 of the molar value. Where two headings read alike, the source gives them in different places.
# Legend:
# KRAS G12D = KRAS G12D (Homo sapiens, UniProt P01116, G12D); assay: GDP-GTP exchange assay (bodipy-GDP/GppNHp, SOS1), KRAS G12D; format: biochemical
# KRAS G12V = KRAS G12V (Homo sapiens, UniProt P01116, G12V); assay: GDP-GTP exchange assay (bodipy-GDP/GppNHp, SOS1), KRAS G12V; format: biochemical
# Sequence of KRAS G12V (P01116 1-188 isoform P01116-2 G12V): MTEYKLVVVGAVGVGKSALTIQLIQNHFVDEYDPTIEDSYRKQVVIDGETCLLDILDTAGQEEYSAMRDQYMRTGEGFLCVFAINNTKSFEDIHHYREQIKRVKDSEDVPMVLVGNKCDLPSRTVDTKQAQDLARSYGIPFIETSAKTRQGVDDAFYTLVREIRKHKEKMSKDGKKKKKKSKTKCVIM
# Caco-2 cells = assay: Caco2 assay (Papp A-B); format: in vitro ADME; conditions: test compound 50 μM, 120 min, 37° C.
# Procedure, shortened: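 Caco-2 monolayers grown 22–25 days on Transwells (TEER 300 Ω·cm^2) were dosed apically with 50 μM compound in HBSS; basolateral receiver held HBSS with 4% BSA. Incubation 120 min at 37° C, 5% CO2; donor and receiver samples quantified by LCMS and Papp A-B calculated from receiver-side cumulative flux slope.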
# [1] = Table H, column G12D, for compounds isolated as several atropisomers/diastereoisomers the value for the most potent isomer is quoted, read-out: KRAS G12D exchange assay IC50
# [2] = Table H, column G12V, for compounds isolated as several atropisomers/diastereoisomers the value for the most potent isomer is quoted, read-out: KRAS G12V exchange assay IC50
# [3] = bodipy-loaded KRAS G12D 2.5 nM, 4 h pre-incubation, value for the most potent isomer quoted for certain compounds, read-out: G12D (KRAS G12D exchange assay IC50)
# [4] = KRAS G12V mutant, value for the most potent isomer quoted for certain compounds, read-out: G12V (KRAS G12V exchange assay IC50)
# Sequence of KRAS G12D (P01116 1-188 isoform P01116-2 G12D): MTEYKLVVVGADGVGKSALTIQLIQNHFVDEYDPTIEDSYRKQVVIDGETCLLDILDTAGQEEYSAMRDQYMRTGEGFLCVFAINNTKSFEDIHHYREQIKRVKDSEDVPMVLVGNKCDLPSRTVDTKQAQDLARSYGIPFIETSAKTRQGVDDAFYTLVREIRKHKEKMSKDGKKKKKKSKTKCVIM
pIC50 (KRAS G12D; [1]),pIC50 (KRAS G12V; [2]),Caco-2 (Caco-2 cells),pIC50 (KRAS G12D; [3]),pIC50 (KRAS G12V; [4]),Structure (SMILES)
≥ 7.00,≥ 7.00,+ (a Caco-2 value of ≤0.5),,,"CCc1c(-c2ccccc2)nnn1[C@H]1C[C@H](c2cc3c(C)nc4c(F)c(-c5cccc(Cl)c5Cl)c(CCC#N)cc4c3n2[C@H]2[C@H]3CN[C@@H]2C3)N(C(=O)C2CC2)C1 [Example 70, 3-(1-((1R,4R,5S)-2-Azabicyclo[2.1.1]hexan-5-yl)-2-((2R,4S)-1-(cyclopropanecarbonyl)-4-(5-ethyl-4-phenyl-1H-1,2,3-triazol-1-yl)pyrrolidin-2-yl)-7-(2,3-dichlorophenyl)-6-fluoro-4-methyl-1H-pyrrolo[3,2-c]quinolin-8-yl)propanenitrile]"
,,++ (a Caco-2 value of >0.5 but ≤1),≥ 7.00,≥ 7.00,COC[C@@H]1[C@@H](Oc2cc(OC)ncc2F)C[C@H](c2cc3c([C@@H](C)O)nc4c(F)c(-c5cccc(Cl)c5Cl)c(CCC#N)cc4c3n2[C@H]2[C@H]3CN[C@@H]2C3)N1C(=O)C1CC1 [Example 83]
≥ 7.00,≥ 7.00,+++ (a Caco-2 value of >1),,,"COc1ncccc1O[C@H]1C[C@H](c2cc3c(C)nc4c(F)c(-c5cccc(Cl)c5Cl)c(CCC#N)cc4c3n2[C@H]2[C@H]3CN[C@@H]2C3)N(C(=O)C2CC2)C1 [Example 1, 3-(1-((1R,4R,5S)-2-Azabicyclo[2.1.1]hexan-5-yl)-2-((2R,4S)-1-(cyclopropanecarbonyl)-4-((2-methoxypyridin-3-yl)oxy)pyrrolidin-2-yl)-7-(2,3-dichlorophenyl)-6-fluoro-4-methyl-1H-pyrrolo[3,2-c]quinolin-8-yl)propanenitrile]"
≥ 7.00,≥ 7.00,+ (a Caco-2 value of ≤0.5),,,Cc1nc2c(F)c(-c3cccc(Cl)c3Cl)c(CCC#N)cc2c2c1cc([C@H]1C[C@H](OCc3noc4ccccc34)CN1C(=O)C1CC1)n2[C@H]1[C@H]2CN[C@@H]1C2 [Example 6]
≥ 7.00,≥ 7.00,+ (a Caco-2 value of ≤0.5),,,Cc1nonc1CO[C@H]1C[C@H](c2cc3c(C)nc4c(F)c(-c5cccc(Cl)c5Cl)c(CCC#N)cc4c3n2[C@H]2[C@H]3CN[C@@H]2C3)N(C(=O)C2CC2)C1 [Example 33]
≥ 7.00,≥ 7.00,+ (a Caco-2 value of ≤0.5),,,Cc1nc2c(F)c(-c3cccc(Cl)c3Cl)c(CCC#N)cc2c2c1cc([C@H]1C[C@H](OC3CCOCC3)CN1C(=O)C1CC1)n2[C@H]1[C@H]2CN[C@@H]1C2 [Example 22]
≥ 7.00,≥ 7.00,+ (a Caco-2 value of ≤0.5),,,Cc1nc2c(F)c(-c3cccc(Cl)c3Cl)c(CCC#N)cc2c2c1cc([C@H]1C[C@H](OCc3nccs3)CN1C(=O)C1CC1)n2[C@H]1[C@H]2CN[C@@H]1C2 [Example 9]
≥ 7.00,≥ 7.00,+ (a Caco-2 value of ≤0.5),,,Cc1nc2c(F)c(-c3cccc(Cl)c3Cl)c(CCC#N)cc2c2c1cc([C@H]1C[C@H](OC(C)c3ccon3)CN1C(=O)C1CC1)n2[C@H]1[C@H]2CN[C@@H]1C2 (stereo partly drawn) [Example 32]
≥ 7.00,≥ 7.00,+ (a Caco-2 value of ≤0.5),,,Cc1nc2c(F)c(-c3cccc(Cl)c3Cl)c(CCC#N)cc2c2c1cc([C@H]1C[C@H](OCc3ccc(F)cc3C#N)CN1C(=O)C1CC1)n2[C@H]1[C@H]2CN[C@@H]1C2 [Example 17]
≥ 7.00,≥ 7.00,+ (a Caco-2 value of ≤0.5),,,Cc1nc2c(F)c(-c3cccc(Cl)c3Cl)c(CCC#N)cc2c2c1cc([C@H]1C[C@H](OCc3ccccc3F)CN1C(=O)C1CC1)n2[C@H]1[C@H]2CN[C@@H]1C2 [Example 20]
≥ 7.00,≥ 7.00,++ (a Caco-2 value of >0.5 but ≤1),,,"COc1nccc(O[C@H]2C[C@H](c3cc4c([C@@H](C)O)nc5c(F)c(-c6cccc(Cl)c6Cl)c(CCC#N)cc5c4n3[C@H]3[C@H]4CN[C@@H]3C4)N(C(=O)C3CC3)C2)c1F [Example 53, 3-(1-((1R,4R,5S)-2-Azabicyclo[2.1.1]hexan-5-yl)-2-((2R,4S)-1-(cyclopropanecarbonyl)-4-((3-fluoro-2-methoxypyridin-4-yl)oxy)pyrrolidin-2-yl)-7-(2,3-dichlorophenyl)-6-fluoro-4-((R)-1-hydroxyethyl)-1H-pyrrolo[3,2-c]quinolin-8-yl)propanenitrile]"
≥ 7.00,≥ 7.00,+++ (a Caco-2 value of >1),,,"Cc1nc2c(F)c(-c3cccc(Cl)c3Cl)c(CCC#N)cc2c2c1cc([C@H]1C[C@H](Oc3cnn(C(F)F)c3)CN1C(=O)C1CC1)n2[C@H]1[C@H]2CN[C@@H]1C2 [Example 48, 3-(1-((1R,4R,5S)-2-Azabicyclo[2.1.1]hexan-5-yl)-2-((2R,4S)-1-(cyclopropanecarbonyl)-4-((1-(difluoromethyl)-1H-pyrazol-4-yl)oxy)pyrrolidin-2-yl)-7-(2,3-dichlorophenyl)-6-fluoro-4-methyl-1H-pyrrolo[3,2-c]quinolin-8-yl)propanenitrile]"
≥ 7.00,≥ 7.00,+++ (a Caco-2 value of >1),,,"Cc1nc2c(F)c(-c3cccc(Cl)c3Cl)c(CCC#N)cc2c2c1cc([C@H]1C[C@H](n3cc(C(C)(C)C)nn3)CN1C(=O)C1CC1)n2[C@H]1[C@H]2CN[C@@H]1C2 [Example 4, 3-(1-((1R,4R,5S)-2-Azabicyclo[2.1.1]hexan-5-yl)-2-((2R,4S)-4-(4-(tert-butyl)-1H-1,2,3-triazol-1-yl)-1-(cyclopropanecarbonyl)pyrrolidin-2-yl)-7-(2,3-dichlorophenyl)-6-fluoro-4-methyl-1H-pyrrolo[3,2-c]quinolin-8-yl)propanenitrile]"
≥ 7.00,≥ 7.00,+ (a Caco-2 value of ≤0.5),,,"Cc1nc2c(F)c(-c3cccc(Cl)c3Cl)c(CCC#N)cc2c2c1cc([C@H]1C[C@H](Oc3cnn(C)c3C#N)CN1C(=O)C1CC1)n2[C@H]1[C@H]2CN[C@@H]1C2 [Example 46, 4-(((3S,5R)-5-(1-((1R,4R,5S)-2-Azabicyclo[2.1.1]hexan-5-yl)-8-(2-cyanoethyl)-7-(2,3-dichlorophenyl)-6-fluoro-4-methyl-1H-pyrrolo[3,2-c]quinolin-2-yl)-1-(cyclopropanecarbonyl)pyrrolidin-3-yl)oxy)-1-methyl-1H-pyrazole-5-carbonitrile]"
,,+++ (a Caco-2 value of >1),≥ 7.00,≥ 7.00,"CC[C@@H]1[C@@H](Oc2cc(OC)ncc2F)C[C@H](c2cc3c([C@@H](C)O)nc4c(F)c(-c5cccc(Cl)c5Cl)c(CCC#N)cc4c3n2[C@H]2[C@H]3CN[C@@H]2C3)N1C(=O)C1CC1 [Example 82, 3-(1-((1R,4R,5S)-2-Azabicyclo[2.1.1]hexan-5-yl)-2-((2R,4S,5R)-1-(cyclopropanecarbonyl)-5-ethyl-4-((5-fluoro-2-methoxypyridin-4-yl)oxy)pyrrolidin-2-yl)-7-(2,3-dichlorophenyl)-6-fluoro-4-((R)-1-hydroxyethyl)-1H-pyrrolo[3,2-c]quinolin-8-yl)propanenitrile]"
≥ 7.00,≥ 7.00,++ (a Caco-2 value of >0.5 but ≤1),,,Cc1cc(CO[C@H]2C[C@H](c3cc4c(C)nc5c(F)c(-c6cccc(Cl)c6Cl)c(CCC#N)cc5c4n3[C@H]3[C@H]4CN[C@@H]3C4)N(C(=O)C3CC3)[C@@H]2C)ns1 [Example 3]
≥ 7.00,≥ 7.00,+ (a Caco-2 value of ≤0.5),,,"COc1cc(O[C@H]2C[C@H](c3cc4c([C@@H](C)O)nc5c(F)c(-c6cccc(Cl)c6Cl)c(CCC#N)cc5c4n3[C@H]3[C@H]4CN[C@@H]3C4)N(C(=O)C3(C)CC3)[C@@H]2C)c(F)cn1 [Example 52, 3-(1-((1R,4R,5S)-2-Azabicyclo[2.1.1]hexan-5-yl)-7-(2,3-dichlorophenyl)-6-fluoro-2-((2R,4S,5R)-4-((5-fluoro-2-methoxypyridin-4-yl)oxy)-5-methyl-1-(1-methylcyclopropane-1-carbonyl)pyrrolidin-2-yl)-4-((R)-1-hydroxyethyl)-1H-pyrrolo[3,2-c]quinolin-8-yl)propanenitrile]"
≥ 7.00,≥ 7.00,+++ (a Caco-2 value of >1),,,Cc1cc(CO[C@H]2C[C@H](c3cc4c(C)nc5c(F)c(-c6cccc(Cl)c6Cl)c(CCC#N)cc5c4n3[C@H]3[C@H]4CN[C@@H]3C4)N(C(=O)C3CC3)C2)ns1 [Example 15]
≥ 7.00,≥ 7.00,++ (a Caco-2 value of >0.5 but ≤1),,,"Cc1ccccc1O[C@H]1C[C@H](c2cc3c(C)nc4c(F)c(-c5cccc(Cl)c5Cl)c(CCC#N)cc4c3n2[C@H]2[C@H]3CN[C@@H]2C3)N(C(=O)C2CC2)C1 [Example 28, 3-(1-((1R,4R,5S)-2-azabicyclo[2.1.1]hexan-5-yl)-2-((2R,4S)-1-(cyclopropanecarbonyl)-4-(o-tolyloxy)pyrrolidin-2-yl)-7-(2,3-dichlorophenyl)-6-fluoro-4-methyl-1H-pyrrolo[3,2-c]quinolin-8-yl)propanenitrile]"
≥ 7.00,≥ 7.00,+ (a Caco-2 value of ≤0.5),,,"Cc1nc2c(F)c(-c3cccc(Cl)c3Cl)c(CCC#N)cc2c2c1cc([C@H]1C[C@H](Oc3cnn(C)c3C(F)F)CN1C(=O)C1CC1)n2[C@H]1[C@H]2CN[C@@H]1C2 [Example 47, 3-(1-((1R,4R,5S)-2-Azabicyclo[2.1.1]hexan-5-yl)-2-((2R,4S)-1-(cyclopropanecarbonyl)-4-((5-(difluoromethyl)-1-methyl-1H-pyrazol-4-yl)oxy)pyrrolidin-2-yl)-7-(2,3-dichlorophenyl)-6-fluoro-4-methyl-1H-pyrrolo[3,2-c]quinolin-8-yl)propanenitrile]"
